In the assay the target is T1, wildtype HIV-1 protease (Human immunodeficiency virus type 1 group M subtype B, UniProt P04585).
T1 construct: the wildtype HIV-1 protease (which was expressed in Escherichia coli); made in house; host or cells: Escherichia coli
Nature of the assay: Assay for inhibition of microbial expressed HIV protease (Pepcleav). The note with it: wild type HIV-1 protease expressed in E. coli, peptide substrate, pH 5.5; mean of at least two independent experiments; read-out: Pepcleav. In kind it is biochemical. The method in brief:
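E. coli-expressed wild-type HIV-1 protease (20 pM) preincubated 30 min at room temperature with inhibitor in pH 5.5 sodium acetate/NaCl/BSA buffer, then 400 μM Val-Ser-Gln-Asn-(βnaphthyl)Ala-Pro-Ile-Val added for 1 h at 30 °C. Quenched with formic acid; product quantified by LC-MS/MS peak area, indinavir internal standard.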

Take `COC(=O)N[C@H](C(=O)Nc1cncnc1CC[C@@H]1CN[C@H](COC(=O)NCC(F)(F)F)CO1)C(c1ccccc1)c1ccccc1` [Example 37, Nα-(methoxycarbonyl)-β-phenyl-N-(4-{2-[(2R,5S)-5-({[(2,2,2-trifluoroethyl)carbamoyl]oxy}methyl)morpholin-2-yl]ethyl}pyrimidin-5-yl)-L-phenylalaninamide]: the IC50 worked out at 180 nM.

As for `N[C@H](C(=O)Nc1cncc(F)c1CC[C@@H]1CN[C@H](COC(=O)N2CCOCC2)CO1)C(c1ccc(F)cc1)c1ccc(F)cc1` [Example 197, {(3S,6R)-6-[2-(3-fluoro-5-{[4-fluoro-β-(4-fluorophenyl)-L-phenylalanyl]amino}pyridin-4-yl)ethyl]morpholin-3-yl}methyl morpholine-4-carboxylate], the IC50 came out at 68 nM.

Turning to `CC(C)(CO)NC(=O)OC[C@@H]1CO[C@H](CCc2c(F)cncc2NC(=O)[C@@H](N)C(c2ccc(F)cc2)c2ccc(F)cc2)CN1` [Example 218, 4-fluoro-N-(5-fluoro-4-{2-[(2R,5S)-5-({[(2-hydroxy-1,1-dimethylethyl)carbamoyl]oxy}methyl)morpholin-2-yl]ethyl}pyridin-3-yl)-β-(4-fluorophenyl)-L-phenylalaninamide], the IC50 is 2.1 nM.

Take `COC(=O)N[C@H](C(=O)Nc1ccccc1CC[C@@H]1CN[C@H](C(=O)NCCc2ccccc2)CO1)C(c1ccccc1)c1ccccc1` [Example 6, Nα-(methoxycarbonyl)-β-phenyl-N-[2-(2-{(2R,5S)-5-[(2-phenylethyl)carbamoyl]morpholin-2-yl}ethyl)phenyl]-L-phenylalaninamide]: the IC50 stood at 9.9 nM.

Turning to `COC(=O)N[C@H](C(=O)Nc1ccccc1CC[C@@H]1CN[C@H](COC(=O)NC2CCc3ccccc32)CO1)C(c1ccccc1)c1ccccc1` (stereo partly drawn) [Example 15, N-(2-{2-[(2R,5S)-5-{[(2,3-dihydro-1H-inden-1-ylcarbamoyl)oxy]methyl}morpholin-2-yl]ethyl}phenyl)-Nα-(methoxycarbonyl)-β-phenyl-L-phenylalaninamide], the IC50 turned out to be 4.1 nM.

For the compound `COC(=O)N[C@H](C(=O)Nc1ccccc1CC[C@@H]1CN[C@H](CNC(=O)c2cc(-c3ccccn3)[nH]n2)CO1)C(c1ccccc1)c1ccccc1` [Example 60, methyl N-[(1S)-1-benzhydryl-2-oxo-2-[[2-[2-[(2R,5R)-5-[[[5-(2-pyridyl)-1H-pyrazole-3-carbonyl]amino]methyl]morpholin-2-yl]ethyl]phenyl]amino]ethyl] carbamate], the IC50 is 72 nM.

On to `COC(=O)N[C@H](C(=O)Nc1c(CC[C@@H]2CN[C@H](COC(=O)NCc3ccc(F)cc3)CO2)cc[nH]c1=O)C(c1ccccc1)c1ccccc1` [Example 38, N-(4-{2-[(2R,5S)-5-({[(4-fluorobenzyl)carbamoyl]oxy}methyl)morpholin-2-yl]ethyl}-2-oxo-1,2-dihydropyridin-3-yl)-Nα-(methoxycarbonyl)-β-phenyl-L-phenylalaninamide], for which the IC50 is 0.6 nM.

With `COC(=O)N[C@H](C(=O)Nc1ccccc1CC[C@@H]1CN[C@H](C(=O)NNc2ccccc2)CO1)C(c1ccccc1)c1ccccc1` [Example 9, Nα-(methoxycarbonyl)-β-phenyl-N-[2-(2-{(2R,5S)-5-[(2-phenylhydrazinyl)carbonyl]morpholin-2-yl}ethyl)phenyl]-L-phenylalaninamide], the IC50 turned out to be 88 nM.

In the case of `COC(=O)N[C@H](C(=O)Nc1cccc(F)c1CC[C@@H]1CN[C@H](COC(=O)NCC(F)(F)F)CO1)[C@@H](c1ccc(Cl)c(F)c1)C1CCOCC1` [Example 129, (βR)-4-Chloro-3-fluoro-N-(3-fluoro-2-{2-[(2R,5S)-5-({[(2,2,2-trifluoroethyl)carbamoyl]oxy}methyl)morpholin-2-yl]ethyl}phenyl)-Nα-(methoxycarbonyl)-β-(tetrahydro-2H-pyran-4-yl)-L-phenylalaninamide], the IC50 came to 8.6 nM.

Take `Cc1cccc(NC(=O)[C@@H](N)C(c2ccc(F)cc2)c2ccc(F)cc2)c1CC[C@@H]1CN[C@H](COC(=O)NCC(F)(F)F)CO1` [Example 226, 4-fluoro-β-(4-fluorophenyl)-N-(3-methyl-2-{2-[(2R,5S)-5-({[(2,2,2-trifluoro-ethyl)carbamoyl]oxy}methyl)morpholin-2-yl]ethyl}phenyl)-L-phenylalaninamide]: the IC50 was found to be 360 nM.

For the compound `N[C@H](C(=O)Nc1cncc(F)c1CC[C@@H]1CN[C@H](COC(=O)NCC2CCS(=O)(=O)C2)CO1)C(c1ccc(F)cc1)c1ccc(F)cc1` (stereo partly drawn) [Example 209, N-[4-(2-{(2R,5S)-5-[({[(1,1-dioxidotetrahydrothiophen-3-yl)methyl]carbamoyl}oxy)methyl]morpholin-2-yl}ethyl)-5-fluoropyridin-3-yl]-4-fluoro-β-(4-fluorophenyl)-L-phenylalaninamide], the IC50 was 16 nM.

Regarding `COC(=O)N[C@H](C(=O)Nc1ccccc1CC[C@@H]1CN[C@H](COC(=O)NCc2ccc3nonc3c2)CO1)C(c1ccccc1)c1ccccc1` [Example 21, methyl N-[(1S)-1-benzhydryl-2-[[2-[2-[(2R,5S)-5-(2,1,3-benzoxadiazol-5-ylmethylcarbamoyloxymethyl)morpholin-2-yl]ethyl]phenyl]amino]-2-oxo-ethyl]carbamate], the IC50 stood at 52 nM.

As to `N[C@H](C(=O)Nc1cncc(F)c1CC[C@@H]1CN[C@H](COC(=O)NC2(c3ccncc3)CCC2)CO1)C(c1ccc(F)cc1)c1ccc(F)cc1` [Example 194, 4-fluoro-β-(4-fluorophenyl)-N-(5-fluoro-4-{2-[(2R,5S)-5-({[(1-pyridin-4-ylcyclobutyl)carbamoyl]oxy}methyl)morpholin-2-yl]ethyl}pyridin-3-yl)-L-phenylalaninamide], the IC50 turned out to be 100 nM.

With `COC(=O)N[C@H](C(=O)Nc1ccccc1CC[C@@H]1CN[C@H](CCc2ccccc2N)CO1)C(c1ccccc1)c1ccccc1` [Example 72, methyl N-[(1S)-1-[[2-[2-[(2R,5R)-5-[2-(2-aminophenyl)ethyl]morpholin-2-yl]ethyl]phenyl]carbamoyl]-2,2-diphenyl-ethyl]carbamate], the IC50 amounted to 14 nM.

As to `COC(=O)N[C@H](C(=O)Nc1ccccc1CC[C@@H]1CN[C@H](CO)CO1)C(c1ccccc1)c1ccccc1` [Example 61, N-(2-{2-[(2R,5R)-5-(hydroxymethyl)morpholin-2-yl]ethyl}phenyl)-Nα-(methoxycarbonyl)-β-phenyl-L-phenylalaninamide], the IC50 came to 160 nM.

For `CCN(CC)C(=O)OC[C@@H]1CO[C@H](CCc2ccccc2NC(=O)[C@@H](NC(=O)OC)C(c2ccccc2)c2ccccc2)CN1` [Example 25], the IC50 was found to be 120 nM.

For the compound `COC(=O)N[C@H](C(=O)Nc1ccccc1CC[C@@H]1CN[C@H](CNS(=O)(=O)c2cccc(C(F)(F)F)n2)CO1)C(c1ccccc1)c1ccccc1` [Example 46, methyl N-[(1S)-1-benzhydryl-2-oxo-2-[[2-[2-[(2R,5R)-5-[[[6-(trifluoromethyl)-2-pyridyl]sulfonylamino]methyl]morpholin-2-yl]ethyl]phenyl]amino]ethyl]carbamate], the IC50 was found to be 50 nM.

For `C[C@H](Oc1c(F)cccc1NC(=O)[C@@H](N)C(c1ccc(F)cc1)c1ccc(F)cc1)[C@@H]1CN[C@H](COC(=O)NCc2ccc(F)cc2)CO1` [Example 195, 4-fluoro-N-(3-fluoro-2-{(1S)-1-[(2S,5S)-5-({[(4-fluorobenzyl)carbamoyl]oxy}methyl)morpholin-2-yl]ethoxy}phenyl)-β-(4-fluorophenyl)-L-phenylalaninamide], the IC50 was 91 nM.

With `N[C@@H](C(=O)Nc1cncc(F)c1CC[C@@H]1CN[C@H](CO)CO1)[C@@H](c1ccccc1)c1ccnc2ccccc12` [Example 225, (βS)-N-(5-fluoro-4-{2-[(2R,5R)-5-(hydroxymethyl)morpholin-2-yl]ethyl}pyridin-3-yl)-β-quinolin-4-yl-D-phenylalaninamide], the IC50 came to 2700 nM.

On to `COC(=O)N[C@H](C(=O)Nc1ccccc1CC[C@@H]1CN[C@H](COC(=O)N[C@H]2c3ccccc3C[C@H]2O)CO1)C(c1ccccc1)c1ccccc1` [Example 14, N-[2-(2-{(2R,5S)-5-[({[(1S,2R)-2-hydroxy-2,3-dihydro-1H-inden-1-yl]carbamoyl}oxy)methyl]morpholin-2-yl}ethyl)phenyl]-Nα-(methoxycarbonyl)-β-phenyl-L-phenylalaninamide], for which the IC50 worked out at 17 nM.

For `N[C@H](C(=O)Nc1cncc(F)c1OC[C@@H]1CN[C@H](COC(=O)NCC(F)(F)F)CO1)C(c1ccc(F)cc1)c1ccc(F)cc1` [Example 203, 4-fluoro-β-(4-fluorophenyl)-N-(5-fluoro-4-{[(2S,5S)-5-({[(2,2,2-trifluoroethyl)carbamoyl]oxy}methyl)morpholin-2-yl]methoxy}pyridin-3-yl)-L-phenylalaninamide], the IC50 worked out at 28 nM.

With `N[C@H](C(=O)Nc1cccc(F)c1CC[C@@H]1CN[C@H](COC(=O)NCc2ccncc2)CO1)C(c1ccc(F)cc1)c1ccc(F)cc1` [Example 198, 4-fluoro-β-(4-fluorophenyl)-N-(3-fluoro-2-{2-[(2R,5S)-5-({[(pyridin-4-ylmethyl)carbamoyl]oxy}methyl)morpholin-2-yl]ethyl}phenyl)-L-phenylalaninamide], the IC50 came to 44 nM.

On to `N[C@@H](Cc1cccc2ccccc12)C(=O)Nc1cncc(F)c1CC[C@@H]1CN[C@H](COC(=O)NCC(F)(F)F)CO1` [Example 190, {(3S,6R)-6-[2-(3-{[(2S)-2-amino-3-naphthalen-1-ylpropanoyl]amino}-5-fluoropyridin-4-yl)ethyl]morpholin-3-yl}methyl (2,2,2-trifluoroethyl)carbamate (non-preferred name)], for which the IC50 amounted to 510 nM.

Turning to `COC(=O)N[C@H](C(=O)Nc1ccccc1CC[C@@H]1CN[C@H](Cn2ccnn2)CO1)C(c1ccccc1)c1ccccc1` [Example 66, Nα-(methoxycarbonyl)-β-phenyl-N-(2-{2-[(2R,5R)-5-(1H-1,2,3-triazol-1-ylmethyl)morpholin-2-yl]ethyl}phenyl)-L-phenylalaninamide], the IC50 was 100 nM.

For the origin of these results see US9315475B2 (MERCK SHARP & DOHME CORP., priority 2011, dated 2016).
